According to patent US20210369739A1, “COMBINATION THERAPY OF ACYLTHIOUREA COMPOUND AND ABIRATERONE” (TAIHO PHARMACEUTICAL CO., LTD., priority 2018, published 2021):

Tests used:
[1] = system: bone metastasis of castration-resistant prostate cancer; assay: Combinational administration test: bone scintigraphy, Bone Scan Index (BSI); format: in vivo, human; details: with 1000 mg abiraterone acetate once a day
Procedure: (§1) A methanesulfonate salt of compound I and abiraterone acetate were administered to patients of castration-resistant prostate cancer with bone metastasis as subjects, and the efficacy and side effects were evaluated. A schedule of administering the methanesulfonate salt of compound I in any of three doses in terms of the free form (200, 300, or 400 mg/body/day) to patients who were receiving secondary endocrine therapy before docetaxel treatment as subjects once a day for 5 days and taking a drug holiday of the compound I only for 2 days was repeated. During this period, 1000 mg of abiraterone acetate was administered to every dosage groups every day once a day, and six subjects were examined in each dosage group. […] In the side effects that determine this discontinuation of enrollment and evaluation, etc., abnormal clinical examination values, such as an increase in alanine aminotransferase (ALT), an increase in aspartate aminotransferase (AST), and an increase in blood creatine kinase (CK), are not included. […] Accordingly, since the number of cases for evaluation of each dosage group is small, i.e., 6 cases, from the viewpoint of the efficacy, side effects, and administration continuity, 6 cases at 300 mg/body/day were additionally evaluated.
Regarding the efficacy, bone scintigraphy to be used for detecting bone metastasis was implemented, and evaluation was performed based on Bone Scan Index (BSI) using analytical data by BONE NAVI and criteria of Response Evaluation Criteria in Solid Tumors (RECIST) guideline Version 1.1 or Prostate Cancer Clinical Trials Working Group 3 (PCWG3). […] The ANN value indicates the degree of confidence of metastasis on a scale from 0 to 1, and an ANN value exceeding 0.5 is assessed to have a risk of bone metastasis. In addition, in FIG. 1, the best value among BSI measured during the period of administration of the compound I is shown as Best response based on the bone metastasis on the day of starting the administration in each dosage group.

[2] = Combinational administration test: seriousness of side effects (CTCAE Ver. 4.03); format: in vivo, human; details: every dosage group; in combination with abiraterone acetate
Procedure: as §1, with “additionally evaluated. […]” for “additionally evaluated.”

## CNC(=O)c1cc2c(Oc3ccc(NC(=S)NC(=O)Cc4ccccc4)cc3F)ccnc2cc1OC [compound I, 4-(2-fluoro-4-(3-(2-phenylacetyl)thioureido)phenoxy)-7-methoxy-N-methylquinoline-6-carboxamide]
[1]; 200 mg/body/day as free form, once a day for 5 days then 2-day holiday, CRPC patients with bone metastasis
  suppression of bone metastasis observed (BSI): two of six
[1]; 300 mg/body/day, among the 10 cases with suppression
  BSI value became 0: three
[1]; 400 mg/body/day as free form, bone metastasis not measurable in one of six cases
  suppression of bone metastasis observed (BSI): five of the remaining five
[2]
  side effects: acceptable
